Measured values reported in article PMC10004088, “Myrtinols A–F: New Anti-Inflammatory Peltogynoid Flavonoid Derivatives from the Leaves of Australian Indigenous Plant Backhousia myrtifolia” (Molecules, 2023).

Legend:
Assay type in all cases: cell-based
[1] = test system: RAW 264.7 macrophages; test: Cell viability / cytotoxicity by the Alamar Blue assay; conditions: Mus musculus, RAW264.7, 24 h, LPS + IFN-γ activated RAW 264.7 macrophages, N = 6, mean ± SD
Protocol: (§1) All compounds were assessed for their anti-inflammatory activity by evaluating the inhibition of NO production and TNF-α in LPS plus interferon (IFN)-γ activated RAW 264.7 macrophages. All compounds were also evaluated for their cytotoxicity using the Alamar blue assay (Table 3).
(§2) Cells were grown in 75 cm^2 flasks on Dulbecco’s Modified Eagle Medium (DMEM) containing 10% fetal bovine serum (FBS) that was supplemented with penicillin (100 U/mL), streptomycin (100 μg/mL) and L-glutamine (2 mM). The cell line was maintained in 5% CO2 at 37 °C, with media being replaced every 3–4 days. Once cells had grown to confluence in the culture flask, they were harvested using a rubber policeman, as opposed to using trypsin, which can remove membrane-bound receptors.
(§3) RAW 264.7 cells (1 × 10^6 cells/mL) were seeded in 96 well plates (Corning® Costar®, Sigma, Sydney, Australia) overnight until confluency. When the cells were confluent, each compound was serially diluted from a starting concentration of 100 μg mL^−1 to construct a dose response curve (i.e., 100, 50, 25, 12.5, 6.25, and 3.13 μg mL^−1) and co-incubated with cells for 1 hr prior to the addition of 1 μg mL^−1 LPS and 10 U mL^−1 (1 unit = 0.1 ng/mL) IFN-γ. After activation, the cells were incubated for another 24 hrs at 37 °C. The supernatant was then collected for NO, and TNF-α assays. The cells were subjected to cell viability measurement using the Alamar Blue assay. Non-activated cells (exposed to media only) were used as negative control and activated cells were positive control.
After various treatments and the stimulation by LPS and IFN-γ overnight, 100 µL of Alamar Blue solution [10% Alamar Blue (resazurin) in DMEM media] was added to cells and incubated at 37 °C for 2 hrs. The fluorescence intensity was measured with excitation at 530 nm and emission at 590 nm using a microplate reader. The results were expressed as a percentage of the intensity to that of control cells (non-activated cells).
(§4) Data analysis was carried using GraphPad Prism 9.3.1. Calculations were performed using MS-Excel version 16.61.1. IC50 values were obtained by using the sigmoidal dose–response function in GraphPad Prism. The results were expressed as mean ± standard deviation (SD).

[2] = test system: nitric oxide (NO) production in LPS + IFN-γ activated RAW 264.7 macrophages; test: Inhibition of NO production (Griess assay) in LPS + IFN-γ activated RAW 264.7 macrophages; conditions: for IC50: Mus musculus, RAW264.7, 24 hrs, N = 6, mean ± SD; for Anti-inflammatory activity (in words): verbal judgement of Table 3 data
Protocol: as §1, §2, §3
Nitric oxide was determined by the Griess reagent as described in previous studies. Griess reagent was freshly made up of equal volumes of 1% sulfanilamide in 5% phosphoric acid and 0.1% N-1-naphthylethylenediamine dihydrochloride in Milli-Q water. From each well, 50 µL of supernatant was transferred to a fresh 96-well plate and mixed with 50 µL of Griess reagent. The production of nitrite as an indicator of NO was measured at 540 nm in a POLARstar Omega microplate reader (BMG Labtech, Mornington, Australia).
as §4

[3] = test system: TNF-α production in LPS + IFN-γ activated RAW 264.7 macrophages; test: Inhibition of TNF-α production (ELISA) in LPS + IFN-γ activated RAW 264.7 macrophages; conditions: Mus musculus, RAW264.7, 24 hrs, N = 6, mean ± SD
Protocol: as §1, §2, §3
The stored supernatants were analyzed for TNF-α synthesis using a commercial ELISA kit (Peprotech, Brisbane, Australia) according to the manufacturer’s instructions. The absorbance was measured at 410 nm. The concentrations of TNF-α in the experimental samples were extrapolated from a standard curve.
as §4

COc1c(C)c(O)cc2c1C[C@@H]1OCc3c(cc4c(c3O)OCO4)[C@H]1O2 [Compound 1, Myrtinol A]
CC50 [1]: 18.8 ± 0.39 µg/mL
IC50 [2]: 11.5 ± 0.14 µg/mL
IC50 [3]: 24.5 ± 0.28 µg/mL

COc1cc2c(c(O)c1OC)CO[C@H]1Cc3c(cc(O)c(C)c3OC)O[C@H]21 [Compound 2, Myrtinol B]
CC50 [1]: 37.2 ± 2.09 µg/mL
IC50 [2]: 16.2 ± 0.77 µg/mL
IC50 [3]: 52.4 ± 7.47 µg/mL

COc1cc2c(c(O)c1C)[C@@H](O)[C@@H]1OCc3c(cc(OC)c(OC)c3O)[C@H]1O2 [Compound 3, Myrtinol C]
CC50 [1]: > 100 µg/mL
IC50 [2]: > 100 µg/mL
Anti-inflammatory activity (in words) [2]: inactive
IC50 [3]: > 100 µg/mL

COc1cc2c(c(O)c1C)C[C@@H]1OCc3c(cc(OC)c(OC)c3O)[C@H]1O2 [Compound 4, Myrtinol D]
CC50 [1]: 71.5 ± 14.7 µg/mL
IC50 [2]: 29.3 ± 10.9 µg/mL
IC50 [3]: 91.3 ± 7.14 µg/mL

COc1cc2c(c(OC)c1C)C[C@@H]1OCc3c(cc4c(c3O)OCO4)[C@H]1O2 [Compound 5, Myrtinol E]
CC50 [1]: 15.5 ± 0.42 µg/mL
IC50 [2]: 8.51 ± 0.47 µg/mL
IC50 [3]: 17.2 ± 0.22 µg/mL

COc1cc2c(c(OC)c1C)C[C@@H]1OCc3c(cc(OC)c(OC)c3O)[C@H]1O2 [Compound 6, Myrtinol F]
CC50 [1]: 19.8 ± 0.86 µg/mL
IC50 [2]: 12.6 ± 0.26 µg/mL
IC50 [3]: 30.6 ± 5.01 µg/mL

COc1ccc([C@@H]2Oc3c(O)cc(CCCO)cc3[C@H]2CO)cc1OC [Compound 7, 4-O-methylcedrusin]
CC50 [1]: > 100 µg/mL
IC50 [2]: 44.1 ± 13.4 µg/mL
Anti-inflammatory activity (in words) [2]: did not show good anti-inflammatory activity
IC50 [3]: > 100 µg/mL

COc1cc([C@@H]2Oc3c(OC)cc(CCCO)cc3[C@H]2CO)ccc1O [Compound 8, 7-O-methylcedrusin]
CC50 [1]: > 100 µg/mL
IC50 [2]: > 100 µg/mL
Anti-inflammatory activity (in words) [2]: did not show good anti-inflammatory activity
IC50 [3]: > 100 µg/mL

COc1cc2oc(-c3ccc(O)cc3)cc(=O)c2c(O)c1C [Compound 9, 8-demethylsideroxylin]
CC50 [1]: 20.4 µg/mL
IC50 [2]: 8.3 ± 0.96 µg/mL
IC50 [3]: 46.8 ± 5.87 µg/mL

COc1cc(/C=C/C(=O)CC(=O)/C=C/c2ccc(O)c(OC)c2)ccc1O [curcumin, reference compound]
CC50 [1]: 10.9 ± 1.3 µg/mL
IC50 [2]: 4.64 ± 1.5 µg/mL
IC50 [3]: 4.19 ± 2.6 µg/mL
